From paper PMC3966854, “Probenecid Blocks Human P2X7 Receptor-Induced Dye Uptake via a Pannexin-1 Independent Mechanism” (PLoS ONE, 2014)
One block for each molecule: values may come before it.

Columns and labels:
Type in all cases: cell-based
human P2X7 receptor [1] = target: T1, human P2X7 receptor (Homo sapiens, UniProt Q99572); assay: Fluo-4 calcium influx and ethidium dye uptake; complete block at […]; set-up: gene P2RX7; human P2X7 stably expressed in HEK-293 cells
T1 sequence (Q99572 1-595): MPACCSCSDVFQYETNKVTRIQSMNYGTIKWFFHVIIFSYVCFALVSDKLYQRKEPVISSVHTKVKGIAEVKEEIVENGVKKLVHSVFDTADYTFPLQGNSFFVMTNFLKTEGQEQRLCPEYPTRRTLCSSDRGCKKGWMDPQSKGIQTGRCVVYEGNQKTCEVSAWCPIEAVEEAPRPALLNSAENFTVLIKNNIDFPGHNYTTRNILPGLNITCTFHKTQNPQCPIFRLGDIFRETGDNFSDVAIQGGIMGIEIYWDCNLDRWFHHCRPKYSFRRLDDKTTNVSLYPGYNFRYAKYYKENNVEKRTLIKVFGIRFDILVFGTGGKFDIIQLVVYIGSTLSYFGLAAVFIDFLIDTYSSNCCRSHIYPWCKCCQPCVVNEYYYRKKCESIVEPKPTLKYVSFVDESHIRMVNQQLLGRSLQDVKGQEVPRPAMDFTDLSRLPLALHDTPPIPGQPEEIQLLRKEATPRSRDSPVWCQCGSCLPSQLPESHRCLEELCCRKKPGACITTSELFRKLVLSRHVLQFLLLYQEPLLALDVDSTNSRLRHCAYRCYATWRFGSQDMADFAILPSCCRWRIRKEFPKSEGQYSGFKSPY

rat P2X7 = target: T2, rat P2X7 (Rattus norvegicus, UniProt Q64663); assay: ATP-induced ethidium dye uptake, […] inhibition at […]; conditions: read-out: % inhibition at 2.5 mM
T2 construct: gene P2rx7; rat P2X7 stably expressed in HEK-293 cells
T2 sequence (Q64663 1-595): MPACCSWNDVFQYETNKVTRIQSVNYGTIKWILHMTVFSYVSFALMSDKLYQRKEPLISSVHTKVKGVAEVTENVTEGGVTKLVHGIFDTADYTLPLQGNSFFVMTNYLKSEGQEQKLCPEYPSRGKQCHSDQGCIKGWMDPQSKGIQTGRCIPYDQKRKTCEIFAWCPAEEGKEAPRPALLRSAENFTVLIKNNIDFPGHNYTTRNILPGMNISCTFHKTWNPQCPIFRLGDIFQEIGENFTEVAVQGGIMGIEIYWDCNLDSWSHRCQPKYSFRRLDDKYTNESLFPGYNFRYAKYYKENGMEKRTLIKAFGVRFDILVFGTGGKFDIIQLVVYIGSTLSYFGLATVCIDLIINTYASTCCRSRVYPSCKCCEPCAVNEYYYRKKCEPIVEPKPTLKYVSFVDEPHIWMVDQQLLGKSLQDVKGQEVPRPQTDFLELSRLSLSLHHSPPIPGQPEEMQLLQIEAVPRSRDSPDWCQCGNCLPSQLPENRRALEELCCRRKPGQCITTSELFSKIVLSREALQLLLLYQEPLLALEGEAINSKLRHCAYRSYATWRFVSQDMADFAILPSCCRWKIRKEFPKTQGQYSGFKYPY

human P2X7 receptor [2] = target: T1, human P2X7 receptor; assay: whole-cell patch clamp, Fluo-4 calcium influx and ethidium dye uptake (IC50 from dye uptake, […] ATP); set-up: gene P2RX7; wild-type human P2X7 stably expressed in HEK-293 cells
human P2X7 receptor [3] = target: T1, human P2X7 receptor; assay: ATP-induced ethidium dye uptake; complete block at […]; set-up: gene P2RX7; human P2X7 stably expressed in HEK-293 cells

SMILES: Clc1cccc(-c2nnnn2Cc2cccnc2)c1Cl [A-438079]
Fluo-4 calcium influx and ethidium dye uptake; complete block at 10 μM (human P2X7 receptor [1]): 10 µM

inhibition at 2500 µM (rat P2X7): 34% | IC50 (human P2X7 receptor [2]): 203 µM
SMILES: CCCN(CCC)S(=O)(=O)c1ccc(C(=O)O)cc1 [PRO, Probenecid]

ATP-induced ethidium dye uptake; complete block at 10 μM (human P2X7 receptor [3]): 10 µM
SMILES: O=C1CSC(=O)N1C(CCc1ccncc1)COc1ccc(-c2cccc([N+](=O)[O-])c2)cc1 (stereo not shown) [AZ11645373]
